Assay results as given in patent publication US11098083B2, “Peptide that regulates fat metabolism and method for regulating fat metabolism” (SHENZHEN INSTITUTES OF ADVANCED TECHNOLOGY, priority 2017, dated 2021).
Ends that are not written are not given here.

What was measured:
HFD mice [1] = assay: gavage of peptides in HFD mice: triglyceride in feces, week 7; format: in vivo, C57BL/6 mice; conditions: gavage 2 pmol/g, feces of week 7, compared with HFD control group, FIG. 7B
Procedure: Feces of each mouse may be collected in week 7, baked at 60° C. for 3 days to ensure complete dryness. Then, 1 mg of the feces may be collected and soaked in 1 ml of a mixed solution consisting of chloroform and methanol in a ratio of 2:1. The soaked feces may then be disrupted with a tissue homogenizer and centrifuged to obtain a supernatant. The supernatant may be detected for triglyceride by the Roche blood biochemical analyzer. Experimental results are shown in FIG. 7B. **: P<0.01, ***: P<0.001.
(§1) Feces of the mice may be collected in the 7th week of the experiment and baked at 60° C. for 3 days to ensure complete dryness. Then, 1 mg of the feces may be weighed and soaked in 1 ml of a mixed solution containing chloroform and methanol in a ratio of 2:1. The feces with the mixed solution may be disrupted by a tissue homogenizer and centrifuged to obtain a supernatant. The supernatant may be detected for triglyceride by the Roche blood biochemical analyzer.
as §1, with “2:1.The” for “2:1. The”
as §1, with “each mouse” for “the mice”, “experiment,” for “experiment”, “dryness.” for “dryness. Then,”, “in” for “with”

HFD mice [2] = assay: gavage of peptides in HFD mice for 7 weeks: body weight; format: in vivo, C57BL/6 mice; conditions: gavage 2 pmol/g of body weight for 7 weeks, compared with HFD control group, FIG. 7A
Text: Six-week-old male wild-type C57BL/6 mice may be divided into 6 groups, 6 mice in each group. Group #1 may be provided with ND, and groups #2 to #6 may be provided with HFD. Group #2 may be treated as a HFD control group. Groups #3 to #6 may be experimental groups, and mice ingroups #3 to #6 may be gavaged with OCN, ISAP1, ISAP2, and ISAP3 respectively at 2 pmol/g of body weight for 7 weeks. Body weight of each mouse may be monitored and measured once a week.
Six-week-old male wild-type C57BL/6 mice may be divided into 6 groups, 6 in each group. Group #1 may be provided with ND to be a ND control group, and groups #2 to #6 may be provided with HFD. Group #2 may be treated as a HFD control group. Groups #3 to #6 may be treated as experimental groups and may be gavaged with OCN, ISAP1, ISAP2, and ISAP3 respectively at 2 pmol/g of body weight daily for 7 weeks. Body weight may be monitored and measured once a week.
Six-week-old male wild-type C57BL/6 mice may be divided into 6 groups, 6 in each group. Group #1 may be provided with ND to be a ND control group, groups #2 to #6 may be provided with HFD. Group #2 may be treated as a HFD control group. Groups #3 to #6 may be treated as experimental groups, and may be gavaged with OCN, ISAP1, ISAP2, and ISAP3 respectively at 2 pmol/g of body weight daily for 7 weeks. A body weight of each mouse may be monitored and measured once a week.

## YLGASVPSPDPLEPT [ISAP1]
HFD mice [1]
  content (level) of triglyceride in the feces: significantly increased
HFD mice [2]
  body weight: significant weight loss
